# According to patent US10987372B2, “Anti-hepatoma-virus agent” (KAGOSHIMA UNIVERSITY, priority 2016, dated 2021):
# What was measured:
# [1] = system: HCV; experiment: Evaluation of anti-HCV activity: Renilla luciferase HCV RNA replication reporter in OR6 cells; format: cell-based; details: 1 μM, culture for 3 days (FIG. 4)
# Method: FIG. 4 is a graph showing anti-HCV activity levels of purine antimetabolites. OR6 cells were seeded at a concentration of 1.5×10^4 cells/well. Then, 24 hours later, purine antimetabolites were each diluted to result in a final concentration of 1 μM and each dilution was added to cells. After culture for 3 days, cells were collected to determine Renilla luciferase activity.
# FIG. 7 is a graph showing anti-HCV activity of clofarabine. OR6 cells were seeded at a concentration of 1.5×10^4 cells/well. Then, 24 hour later, clofarabine was diluted to result in concentrations of 0, 15.6, 31.3, 62.5, 125, 250, 500, and 1000 nM and each dilution was added to cells. After culture for 3 days, cells were collected to determine Renilla luciferase activity.
# Anti-HCV activity was evaluated using OR6 cells from the human liver cancer cell line HuH-7 and ORL8 cells from the human liver cancer cell line Li23. Since the Renilla Luciferase gene has been incorporated into the genome of the genotype-1b O strain in OR6 cells and ORL8 cells, it is possible to conveniently and accurately evaluate the level of HCV RNA replication by determining the Renilla Luciferase activity. Each agent was added to OR6 cells or ORL8 cells, the cells were recovered on day 3, and the Renilla Luciferase activity was determined. […]
# [2] = system: leukemia; details: clinical use for leukemia; cited from earlier work
# [3] = system: HBV; experiment: Determination of anti-HBV activity: HBV DNA by quantitative PCR in HepG2.2.15 cells; format: cell-based; details: for anti-HBV activity (intracellular HBV DNA amount): 1 μM, culture for 7 days, quantitative PCR (FIG. 3)
# Method: FIG. 3 is a graph showing anti-HBV activity levels of purine antimetabolites. HepG2.2.15 cells were seeded at a concentration of 1×10^5 cells/well. Then, 24 hours later, purine antimetabolites (clofarabine, cladribine, and fludarabine) and entecavir (ETV) were each diluted to result in a final concentration of 1 μM and each dilution was added to cells. After culture for 7 days, the cytoplasmic fraction was collected and DNA was purified by phenol-chloroform extraction. The intracellular HBV DNA amount was evaluated by quantitative PCR using 20 ng of purified DNA.
# FIG. 5 is a graph showing anti-HBV activity of clofarabine. HepG2.2.15 cells were seeded at a concentration of 1×10^5 cells/well. Then, 24 hour later, clofarabine was diluted to result in concentrations of 0, 0.97, 1.95, 3.90, 7.81, 15.6, 31.3, 62.5, 125, 250, 500, and 1000 nM and each dilution was added to cells. After culture for 7 days, the cytoplasmic fraction was collected and DNA was purified by phenol-chloroform extraction. The intracellular HBV DNA amount was evaluated by quantitative PCR using 20 ng of purified DNA.
# Anti-HBV activity was evaluated by quantitative PCR for determining the amount of HBV DNA in cells or HBV DNA in the culture supernatant on day 7 after the addition of the agent using the HepG2.2.15 cell line of HBV-producing cells obtained by introducing a gene having a length twice that of the HBV genome into the human liver cancer cell line HepG2. For PCR of HBV DNA, a forward primer (HBV-S190F; 5′-GCT CGT GTT ACA GGC GGG-3′: SEQ ID NO: 1) and a reverse primer (HBV-S703R; 5′-GAACCACTGAACAAATGGCACTAGTA-3′: SEQ ID NO: 2) were used. PCR was performed by carrying out a reaction at 95° C. for 10 sec, 62° C. for 10 sec, and 72° C. for 30 sec for 35 cycles.
# For screening of the anti-HBV agent, the HepG2.2.15 line obtained by introducing the HBV gene into HepG2 cells of a human cancer cell line was used (Production of hepatitis B virus particles in HepG2 cells transfected with cloned hepatitis B virus DNA. Sells M A, Chen M L, and Acs G., Proc. Natl. Acad. Sci. USA 84: 1005-1009 (1987)). […]
Compound,anti-HCV activity (Renilla luciferase activity) [1],effective blood level for leukemia [2],anti-HBV activity (intracellular HBV DNA amount) [3],concentration at which anti-HBV activity is exhibited ([3]; 7 days (FIG. 5))
"Nc1nc(Cl)nc2c1ncn2[C@@H]1O[C@H](CO)[C@@H](O)[C@@H]1F [clofarabine, 2-chloro-9-(2-deoxy-2-fluoro-β-D-arabinofuranosyl)adenine]",comparable to that of sofosbuvir,about 2 μM,comparable to that of entecavir,about 20 nM
"Nc1nc(Cl)nc2c1ncn2[C@H]1C[C@H](O)[C@@H](CO)O1 [cladribine, 2-chloro-9-(2-deoxy-β-D-arabinofuranosyl)adenine]",has anti-HCV activity,,does not have anti-HBV activity,
